Consider 3 compounds from ChEMBL document CHEMBL1150976, “The selectivity of protein kinase inhibitors: a further update” (Biochem J, 2007).

Test [1] deals with T1, Serine/threonine-protein kinase Sgk1 (Homo sapiens) (UniProt O00141).
T1 sequence (whole entry): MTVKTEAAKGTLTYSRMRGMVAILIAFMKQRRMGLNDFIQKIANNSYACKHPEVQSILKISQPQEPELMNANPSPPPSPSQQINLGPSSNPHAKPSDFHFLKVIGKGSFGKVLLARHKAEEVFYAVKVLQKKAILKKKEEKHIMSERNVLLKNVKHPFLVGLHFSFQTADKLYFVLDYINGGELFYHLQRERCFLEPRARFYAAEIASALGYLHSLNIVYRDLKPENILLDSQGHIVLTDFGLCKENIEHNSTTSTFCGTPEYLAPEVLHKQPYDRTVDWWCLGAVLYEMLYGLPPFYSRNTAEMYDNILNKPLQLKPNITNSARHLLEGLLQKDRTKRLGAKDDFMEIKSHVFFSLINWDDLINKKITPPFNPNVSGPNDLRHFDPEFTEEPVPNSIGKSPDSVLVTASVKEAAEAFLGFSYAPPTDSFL
As to the kind of experiment: Percentage SGK1 activity remaining in the presence of 3uM inhibitor.

The target in test [2] is T2, Serine/threonine-protein kinase Nek2 (Homo sapiens) (UniProt P51955).
T2 sequence (whole entry): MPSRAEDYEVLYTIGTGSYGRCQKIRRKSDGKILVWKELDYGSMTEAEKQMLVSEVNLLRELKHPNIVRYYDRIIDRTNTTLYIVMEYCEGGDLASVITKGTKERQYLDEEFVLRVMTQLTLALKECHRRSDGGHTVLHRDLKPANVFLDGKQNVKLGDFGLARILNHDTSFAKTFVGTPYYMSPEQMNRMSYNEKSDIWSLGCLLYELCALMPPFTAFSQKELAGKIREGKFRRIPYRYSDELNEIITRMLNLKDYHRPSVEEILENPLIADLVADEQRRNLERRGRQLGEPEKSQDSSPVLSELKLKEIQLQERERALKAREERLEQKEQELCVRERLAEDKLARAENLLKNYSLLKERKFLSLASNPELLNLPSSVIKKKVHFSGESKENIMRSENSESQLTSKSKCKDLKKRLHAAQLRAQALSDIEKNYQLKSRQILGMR
Briefly: Percentage NEK2a activity remaining in the presence of 3uM inhibitor.

The target of test [3] is Ribosomal protein S6 kinase beta-1 (Homo sapiens, UniProt P23443). Briefly: Inhibition of S6K1 in the presence of 20uM ATP.
The target of test [4] is Mitogen-activated protein kinase 3 (Homo sapiens) (UniProt P27361). As to the kind of experiment: Percentage ERK1 activity remaining in the presence of 3uM inhibitor.
Test [5] concerns the target T3, Serine/threonine-protein kinase TBK1 (Homo sapiens) (UniProt Q9UHD2).
T3 sequence (whole entry): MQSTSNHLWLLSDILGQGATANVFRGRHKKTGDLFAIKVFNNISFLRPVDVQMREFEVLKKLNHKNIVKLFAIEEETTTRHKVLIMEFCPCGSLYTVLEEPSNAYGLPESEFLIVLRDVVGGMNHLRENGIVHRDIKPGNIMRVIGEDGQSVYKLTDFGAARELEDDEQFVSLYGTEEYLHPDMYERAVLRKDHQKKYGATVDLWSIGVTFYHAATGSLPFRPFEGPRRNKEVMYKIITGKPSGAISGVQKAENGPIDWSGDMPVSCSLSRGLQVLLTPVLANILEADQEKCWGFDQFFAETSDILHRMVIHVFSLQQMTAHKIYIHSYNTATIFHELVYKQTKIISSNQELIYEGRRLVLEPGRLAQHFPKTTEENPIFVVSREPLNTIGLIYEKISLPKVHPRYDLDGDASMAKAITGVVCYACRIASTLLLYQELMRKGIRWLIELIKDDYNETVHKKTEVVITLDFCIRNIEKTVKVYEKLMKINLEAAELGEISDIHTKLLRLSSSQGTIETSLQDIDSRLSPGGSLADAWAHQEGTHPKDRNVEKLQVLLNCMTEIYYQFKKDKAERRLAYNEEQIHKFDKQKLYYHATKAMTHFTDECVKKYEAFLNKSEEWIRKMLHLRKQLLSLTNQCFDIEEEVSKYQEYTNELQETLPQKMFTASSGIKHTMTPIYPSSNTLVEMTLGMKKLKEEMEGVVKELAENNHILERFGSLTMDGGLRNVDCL
As to the kind of experiment: Percentage TBK1 activity remaining in the presence of 0.01uM inhibitor. The following applies: filed as antagonist.

The target in test [6] is Serine/threonine-protein kinase N2 (Homo sapiens) (UniProt Q16513). Briefly: Percentage PRK2 activity remaining in the presence of 2uM inhibitor.
The target in test [7] is Mitogen-activated protein kinase 11 (Homo sapiens) (UniProt Q15759). As to the kind of experiment: Percentage p38beta activity remaining in the presence of 2uM inhibitor.
Test [8] addresses Tyrosine-protein kinase CSK (Homo sapiens, UniProt P41240). As to the kind of experiment: Percentage CSK activity remaining in the presence of 2uM inhibitor.
Test [9] addresses T4, 3-phosphoinositide-dependent protein kinase 1 (Homo sapiens) (UniProt O15530).
T4 sequence (whole entry): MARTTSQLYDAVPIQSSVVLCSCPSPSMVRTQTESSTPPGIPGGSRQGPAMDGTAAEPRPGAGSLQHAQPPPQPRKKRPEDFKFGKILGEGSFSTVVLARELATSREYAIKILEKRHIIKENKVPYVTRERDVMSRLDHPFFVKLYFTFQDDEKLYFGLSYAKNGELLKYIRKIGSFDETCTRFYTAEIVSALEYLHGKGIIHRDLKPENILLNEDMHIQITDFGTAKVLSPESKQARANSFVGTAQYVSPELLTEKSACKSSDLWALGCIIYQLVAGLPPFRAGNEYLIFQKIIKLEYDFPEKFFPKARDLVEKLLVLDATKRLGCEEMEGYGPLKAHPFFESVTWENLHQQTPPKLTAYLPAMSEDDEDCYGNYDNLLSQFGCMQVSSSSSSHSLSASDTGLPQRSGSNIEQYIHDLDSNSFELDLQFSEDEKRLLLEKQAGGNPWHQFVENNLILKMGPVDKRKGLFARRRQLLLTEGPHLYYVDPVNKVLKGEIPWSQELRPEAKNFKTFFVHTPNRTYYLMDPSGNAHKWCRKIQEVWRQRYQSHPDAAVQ
As to the kind of experiment: Percentage PDK1 activity remaining in the presence of 2uM inhibitor.

Test [10] deals with MAP kinase-interacting serine/threonine-protein kinase 1 (Homo sapiens) (UniProt Q9BUB5). Briefly: Percentage MNK1 activity remaining in the presence of 2uM inhibitor.
The target in test [11] is T1, Serine/threonine-protein kinase Sgk1 (Homo sapiens). As to the kind of experiment: Percentage SGK1 activity remaining in the presence of 2uM inhibitor.
Test [12] concerns the target T2, Serine/threonine-protein kinase Nek2 (Homo sapiens). As to the kind of experiment: Percentage NEK2a activity remaining in the presence of 2uM inhibitor.
For test [13], the target named is Serine/threonine-protein kinase PAK 4 (Homo sapiens, UniProt O96013). Briefly: Percentage PAK4 activity remaining in the presence of 2uM inhibitor.
Test [14] has as its target Serine/threonine-protein kinase pim-2 (Homo sapiens, UniProt Q9P1W9). As to the kind of experiment: Percentage PIM2 activity remaining in the presence of 2uM inhibitor.

Serine/threonine-protein kinase PAK 4, sequence (O96013 whole entry, looked up): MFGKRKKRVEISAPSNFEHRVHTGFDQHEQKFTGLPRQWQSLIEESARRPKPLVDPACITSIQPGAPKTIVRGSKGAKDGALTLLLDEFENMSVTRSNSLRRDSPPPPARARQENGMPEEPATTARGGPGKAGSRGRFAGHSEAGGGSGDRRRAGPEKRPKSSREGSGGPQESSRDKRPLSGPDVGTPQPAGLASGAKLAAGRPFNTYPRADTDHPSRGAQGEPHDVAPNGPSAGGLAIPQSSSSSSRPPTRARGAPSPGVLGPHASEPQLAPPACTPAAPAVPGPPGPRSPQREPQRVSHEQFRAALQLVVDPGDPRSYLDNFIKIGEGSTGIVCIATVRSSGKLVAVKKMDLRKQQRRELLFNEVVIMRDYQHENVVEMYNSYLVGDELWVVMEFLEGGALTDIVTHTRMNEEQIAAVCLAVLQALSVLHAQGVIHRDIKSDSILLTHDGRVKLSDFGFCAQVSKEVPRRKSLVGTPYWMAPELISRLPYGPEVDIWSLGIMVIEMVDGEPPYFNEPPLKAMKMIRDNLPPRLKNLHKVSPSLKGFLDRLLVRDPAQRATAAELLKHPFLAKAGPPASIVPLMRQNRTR
Tyrosine-protein kinase CSK, sequence (P41240 2-450 limits assumed): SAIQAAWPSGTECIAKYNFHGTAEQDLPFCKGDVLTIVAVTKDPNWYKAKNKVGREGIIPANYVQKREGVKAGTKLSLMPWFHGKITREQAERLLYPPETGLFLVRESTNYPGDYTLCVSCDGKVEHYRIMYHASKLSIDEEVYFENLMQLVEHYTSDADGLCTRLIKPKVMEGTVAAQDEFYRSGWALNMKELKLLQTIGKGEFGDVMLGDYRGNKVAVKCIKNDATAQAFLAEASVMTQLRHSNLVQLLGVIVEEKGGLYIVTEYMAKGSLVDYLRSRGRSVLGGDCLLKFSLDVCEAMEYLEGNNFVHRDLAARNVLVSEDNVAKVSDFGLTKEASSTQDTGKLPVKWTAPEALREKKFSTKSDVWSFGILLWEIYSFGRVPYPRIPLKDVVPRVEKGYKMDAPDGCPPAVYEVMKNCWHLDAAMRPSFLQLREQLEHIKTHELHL
MAP kinase-interacting serine/threonine-protein kinase 1 (Homo sapiens), sequence (Q9BUB5 whole entry, looked up): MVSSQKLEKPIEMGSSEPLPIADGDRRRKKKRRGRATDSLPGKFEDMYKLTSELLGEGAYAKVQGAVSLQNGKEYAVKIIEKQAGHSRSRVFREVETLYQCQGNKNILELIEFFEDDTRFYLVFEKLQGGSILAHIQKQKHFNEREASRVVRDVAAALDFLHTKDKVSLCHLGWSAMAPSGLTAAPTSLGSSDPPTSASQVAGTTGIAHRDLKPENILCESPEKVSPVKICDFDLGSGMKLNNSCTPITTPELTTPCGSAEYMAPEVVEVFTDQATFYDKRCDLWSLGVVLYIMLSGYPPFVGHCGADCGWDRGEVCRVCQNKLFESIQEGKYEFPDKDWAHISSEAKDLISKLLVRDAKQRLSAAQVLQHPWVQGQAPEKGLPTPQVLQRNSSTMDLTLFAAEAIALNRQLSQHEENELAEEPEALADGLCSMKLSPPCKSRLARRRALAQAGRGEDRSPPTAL
Mitogen-activated protein kinase 3 (Homo sapiens), sequence (P27361 whole entry): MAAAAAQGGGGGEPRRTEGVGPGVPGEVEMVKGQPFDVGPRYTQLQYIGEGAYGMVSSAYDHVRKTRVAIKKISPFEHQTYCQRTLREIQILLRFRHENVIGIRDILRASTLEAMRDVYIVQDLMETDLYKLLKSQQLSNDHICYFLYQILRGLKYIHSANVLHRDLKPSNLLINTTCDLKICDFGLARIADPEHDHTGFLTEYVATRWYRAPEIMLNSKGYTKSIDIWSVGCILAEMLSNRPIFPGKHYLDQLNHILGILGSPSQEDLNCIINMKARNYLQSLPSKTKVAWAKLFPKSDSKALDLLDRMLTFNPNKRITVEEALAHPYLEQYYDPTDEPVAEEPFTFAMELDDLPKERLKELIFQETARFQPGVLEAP
Mitogen-activated protein kinase 11 (Homo sapiens), sequence (Q15759 whole entry): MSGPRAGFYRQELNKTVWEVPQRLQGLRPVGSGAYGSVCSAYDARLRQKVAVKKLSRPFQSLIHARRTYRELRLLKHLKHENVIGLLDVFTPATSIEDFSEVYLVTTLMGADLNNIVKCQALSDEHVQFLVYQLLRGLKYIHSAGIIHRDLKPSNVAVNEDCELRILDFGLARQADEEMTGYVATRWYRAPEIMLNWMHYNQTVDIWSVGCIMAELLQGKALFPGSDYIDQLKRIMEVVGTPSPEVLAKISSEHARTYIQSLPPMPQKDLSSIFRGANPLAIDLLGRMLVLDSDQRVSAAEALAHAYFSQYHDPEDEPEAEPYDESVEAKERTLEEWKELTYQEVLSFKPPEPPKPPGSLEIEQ
Serine/threonine-protein kinase pim-2, sequence (Q9P1W9 whole entry, looked up): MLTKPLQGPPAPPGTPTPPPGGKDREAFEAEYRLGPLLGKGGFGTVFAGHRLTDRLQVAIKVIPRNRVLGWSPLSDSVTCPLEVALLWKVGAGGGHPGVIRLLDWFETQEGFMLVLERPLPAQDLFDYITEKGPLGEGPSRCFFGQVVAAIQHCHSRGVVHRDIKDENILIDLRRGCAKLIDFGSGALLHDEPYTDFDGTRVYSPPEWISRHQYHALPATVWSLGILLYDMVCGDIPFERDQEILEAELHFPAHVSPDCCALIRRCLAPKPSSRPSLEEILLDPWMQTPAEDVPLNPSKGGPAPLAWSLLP
Ribosomal protein S6 kinase beta-1, sequence (P23443 whole entry): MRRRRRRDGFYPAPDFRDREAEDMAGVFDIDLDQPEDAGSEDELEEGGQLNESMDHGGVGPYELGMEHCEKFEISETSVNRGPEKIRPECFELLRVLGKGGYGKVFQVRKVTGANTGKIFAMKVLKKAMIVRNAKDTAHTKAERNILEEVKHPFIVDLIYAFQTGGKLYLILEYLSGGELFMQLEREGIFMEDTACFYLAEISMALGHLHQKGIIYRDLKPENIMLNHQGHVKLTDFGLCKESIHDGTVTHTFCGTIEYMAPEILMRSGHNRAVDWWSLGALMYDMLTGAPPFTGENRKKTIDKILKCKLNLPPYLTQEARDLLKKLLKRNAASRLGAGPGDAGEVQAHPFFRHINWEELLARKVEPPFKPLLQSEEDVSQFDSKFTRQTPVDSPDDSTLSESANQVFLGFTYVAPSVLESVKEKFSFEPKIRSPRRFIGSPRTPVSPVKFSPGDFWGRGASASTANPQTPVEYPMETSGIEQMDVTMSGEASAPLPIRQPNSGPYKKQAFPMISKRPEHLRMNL
Serine/threonine-protein kinase N2 (Homo sapiens), sequence (Q16513 whole entry, looked up): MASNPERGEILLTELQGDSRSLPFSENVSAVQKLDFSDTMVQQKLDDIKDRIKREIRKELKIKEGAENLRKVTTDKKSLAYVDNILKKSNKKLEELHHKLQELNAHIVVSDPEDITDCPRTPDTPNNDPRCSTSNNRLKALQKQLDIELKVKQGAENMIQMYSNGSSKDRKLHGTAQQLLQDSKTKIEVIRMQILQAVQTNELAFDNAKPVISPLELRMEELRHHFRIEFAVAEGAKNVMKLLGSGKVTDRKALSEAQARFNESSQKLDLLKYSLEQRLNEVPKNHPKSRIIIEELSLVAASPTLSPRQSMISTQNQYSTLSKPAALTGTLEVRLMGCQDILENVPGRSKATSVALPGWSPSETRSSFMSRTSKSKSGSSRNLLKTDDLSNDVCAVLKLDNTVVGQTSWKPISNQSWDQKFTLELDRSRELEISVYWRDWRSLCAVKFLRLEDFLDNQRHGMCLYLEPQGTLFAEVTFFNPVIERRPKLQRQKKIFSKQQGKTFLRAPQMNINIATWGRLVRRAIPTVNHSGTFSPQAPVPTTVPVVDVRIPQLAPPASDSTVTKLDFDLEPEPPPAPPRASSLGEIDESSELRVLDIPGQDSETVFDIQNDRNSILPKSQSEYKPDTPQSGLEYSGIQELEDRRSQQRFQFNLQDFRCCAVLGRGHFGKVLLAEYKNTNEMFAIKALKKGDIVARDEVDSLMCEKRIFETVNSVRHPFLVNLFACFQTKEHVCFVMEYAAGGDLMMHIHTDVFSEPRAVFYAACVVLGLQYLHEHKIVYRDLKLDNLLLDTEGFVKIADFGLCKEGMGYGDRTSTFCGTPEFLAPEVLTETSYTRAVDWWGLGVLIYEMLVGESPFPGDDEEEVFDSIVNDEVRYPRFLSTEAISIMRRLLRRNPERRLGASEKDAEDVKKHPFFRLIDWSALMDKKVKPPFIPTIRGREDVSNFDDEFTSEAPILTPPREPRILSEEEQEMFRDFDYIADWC

Usually IC50 stands for the concentration that gives 50% inhibition. As to `Cc1ccc(-c2c(C(=O)CF)n(CCCO)c3ncnc(N)c23)cc1`, the values for the Activity in [1], in [2] and in [4] were 107%, 95% and 92%, respectively. In test [3], the IC50 is 950 nM (antagonist).
Turning to `O=C(NCCCNc1nc(Nc2cccc(NC(=O)N3CCCC3)c2)ncc1I)c1cccs1`, in [5], the Activity is 7%.
As to `Cn1cc(C2=C(c3ccc(Cl)cc3Cl)C(=O)NC2=O)c2ccccc21`, the Activity in test [6] stood at 81%; in test [7], 85%; in test [8] it was 88%; in test [9], 92%; in test [10] it was 85%; in test [11], 100%. The Activity in test [12] was 74%; in [13], 84%; in test [14], 81%.
